Measured values as given in US8859781B2, “No-releasing nonoate(nitrogen-bound)sulfonamide-linked-coxib anti-cancer agents” (Euclises Pharmaceuticals, Inc., priority 2012, dated 2014).

Test system: PGE2 levels in exudate (carrageenan-challenged air pouch)
Assay: Air pouch assay of acute inflammation measuring exudate volume and PGE2 levels in exudate in rats
Format: in vivo, Sprague-Dawley rats
Conditions: rat air pouch; for PGE2 (pg/mL), mean in exudate / Volume (mL), mean collected exudate volume: 0.01 mmol/kg oral 2 h before 1% carrageenan, exudate 4 h after carrageenan, group mean, 5 rats/group; for PGE2 (pg/mL), mean in exudate: ELISA; for reduction in collected exudate volume / reduction in exudate PGE2 release / effect on the carrageenan-induced increase in PGE2 release / effect on the carrageenan-induced increase in exudate volume: 0.01 mmol/kg oral pretreatment; for reduction in collected exudate volume / reduction in exudate PGE2 release: vs vehicle; for effect on the carrageenan-induced increase in PGE2 release / effect on the carrageenan-induced increase in exudate volume: result in words
Method: Compound Testing in the Air Pouch Assay of Acute Inflammation Measuring PGE2 Levels in Exudate in Rats
Animals: Sprague-Dawley rats (Charles River Laboratories., R #3234, PO #738990, male, 160-180 g) were received, individually examined, and housed in cages of five rats each. The rats were ear notched for identification purposes.
Compounds and Dosing Solutions: The vehicle was prepared by dissolving 40 g (2-hydroxypropyl)-β-cyclodextrin (HP-β-CD, Sigma, Cat. 332593, lot MKBJ5858V) in 160 mL sterile saline for injection, USP (Hospira, lot 26-801-FW) making a 25% solution which was filter sterilized (0.2 μm, Nalgene, Cat. 151-4020, lot 1095610). A 1% carrageenan solution was prepared by dissolving […] (Fluka, Cat. 22049, lot 1318338) in hot 60 mL sterile saline for injection, USP. This solution was stored at 4-8° C. Test compounds were dissolved in DMSO (Fisher Scientific, Cat. D128-500, lot 874999) to make 75 mM stocks. 0.25 mL of compound DMSO stocks were mixed with 12.5 mL of HP-13-CD solution at 50° C. (maximum DMSO concentration was 2% of the final volume of vehicle,). Final concentration of all test compounds was 1.5 mM and compounds were dosed within 2 hours of preparation at 0.01 mmol/kg (12 […] of test compound per rat).
Day 0—Air Pouch Initiation: The rats were anesthetized in a biological cabinet, the nape of the neck was cleansed with 70% isopropanol (Butler Schein Animal Health, Cat. 002498, lot 29EMS07104547) followed by 1% povidone-iodine solution (Ricca Chemical Co., Cat. 3955-16, lot 2205469). Twenty mL of sterile (0.22 μm, Millipore, Cat. SLGP033RS, lot R2KA55925, exp August 2015) air was injected subcutaneously (SC) using a 23G×1½ inch needle fixed to a 20 mL syringe. The rats were returned to routine housing. No adverse reactions were observed.
Day 3—Air Pouch Maintenance: The rats were anesthetized in a biological cabinet, the nape of the neck was cleansed with 70% isopropanol followed by 1% povidone-iodine solution. Ten mL of sterile air was injected SC using a 23G×1½ inch needle fixed to a 20 mL syringe. The rats were returned to routine housing in clean cages. No adverse reactions were observed.
Day 6—Compound Administration and Carrageenan Insult: At commencement of the study, each rat was weighed and sorted into treatment groups of 5 rats/group based upon average weight. Each rat was dosed orally via gavage at 6.809 mL/kg (1.6 mL/235 g) with their respective test material/vehicle. Two hours after test material/vehicle administration, the rats were injected with 1.0 mL of the room temperature 1% carrageenan saline solution into the air pouch. Four hours after carrageenan injection, the rats were anesthetized and 5 mL of the exudate buffer was injected into the air pouch. The pouch was gently massaged, the exudate immediately removed, and exudate volume recorded. The exudate was collected in a serum separator tube on an ice bath. The exudates were centrifuged (refrigerated) and an aliquot of the supernatant was stored in a labeled Eppendorf tube at −80° C.
Termination of Study: Animals were euthanized via CO2 asphyxiation at the completion of the in-life portion of this study and carcasses were disposed of according to standard protocols.
Data Analysis: The exudate samples were thawed to room temperature and assayed by ELISA for PGE2 (R&D Systems, Cat. KGE004B, lot 307711). Statistical significance of treatments on mean exudate volumes are determined by comparison of means for treatment groups with vehicle group. Mean cytokine concentrations and standard deviations are determined for each group. Statistical significance of treatments on cytokine concentrations are determined for each compound group compared to vehicle group. Statistical significance (p-value) was calculated vs control groups by Student's t-Test.

Compound | PGE2 (pg/mL), mean in exudate | Volume (mL), mean collected exudate volume | reduction in collected exudate volume | reduction in exudate PGE2 release | effect on the carrageenan-induced increase in PGE2 release | effect on the carrageenan-induced increase in exudate volume
Cc1ccc(-c2cc(C(F)(F)F)nn2-c2ccc(S(N)(=O)=O)cc2)cc1 [Celecoxib, 4-(5-(p-Tolyl)-3-(trifluoromethyl)-1H-pyrazol-1-yl)benzenesulfonamide, reference compound] | 907.1 pg/mL | 4.6 mL | 19% | 80% |  | 
Cc1ccc(-c2cc(C(F)(F)F)nn2-c2ccc(S(=O)(=O)NC(=O)OCCN(C)/[N+]([O-])=N/OCOC(=O)C(C)(C)C)cc2)cc1 [Compound 202, (Z)-5,12,12-Trimethyl-1,11-dioxo-1-(4-(5-(p-tolyl)-3-(trifluoromethyl)-1H-pyrazol-1-yl)phenylsulfonamido)-2,8,10-trioxa-5,6,7-triazatridec-6-ene 6-oxide] | 4959.1 pg/mL | 5.6 mL |  |  | did not show any effect | did not show any effect
Cc1ccc(-c2cc(C(F)(F)F)nn2-c2ccc(S(=O)(=O)NC(=O)CN(C)/[N+]([O-])=N/OCOC(=O)C(C)(C)C)cc2)cc1 [Compound 602, (Z)-3-Methyl-3-(2-oxo-2-(4-(5-(p-tolyl)-3-(trifluoromethyl)-1H-pyrazol-1-yl)phenylsulfonamido)ethyl)-1-((pivaloyloxy)methoxy)triaz-1-ene 2-oxide] | 1915.2 pg/mL | 4.5 mL | 20% | 56% |  | 
CN(CCO)/[N+]([O-])=N/OCOC(=O)C(C)(C)C [Compound N402, (Z)-3-(2-Hydroxyethyl)-3-methyl-1-((pivaloyloxy)methoxy)triaz-1-ene 2-oxide] | 3782.4 pg/mL | 5.4 mL |  |  | did not show any effect | did not show any effect
